In patent US20090005373A1, “SUBSTITUTED SULFONAMIDO-MACROCYCLES AS TIE2 INHIBITORS AND SALTS THEREOF, PHARMACEUTICAL COMPOSITIONS COMPRISING SAME, METHODS OF PREPARING SAME AND USES OF SAME” (priority 2006, published 2009) one finds IC50 data, which are given here for five molecules.

Holding throughout (assay type): biochemical
One test addresses T1, Tie-2 (Homo sapiens, UniProt Q02763).
T1 construct: A recombinant fusion protein of GST and the intracellular domains of Tie-2, expressed in insect cells (Hi-5); GST; made in house; host or cells: Hi-5 insect cells
The test can be described thus: Tie-2-Kinase HTRF-Assay without Kinase Preactivation (assay 2). The following applies: 10 μM ATP, no kinase preactivation. An excerpt: Tie2-inhibitory activity of compounds of the present invention was quantified employing two Tie2 HTRF assay as described in the following paragraphs.
A recombinant fusion protein of GST and the intracellular domains of Tie-2, expressed in insect cells (Hi-5) and purified by Glutathion-Sepharose affinity chromatography was used as kinase. Alternatively, commercially available GST-Tie2-fusion protein (Upstate Biotechnology, Dundee, Scotland) can be used As substrate for the kinase reaction the biotinylated peptide biotin-Ahx-EPKDDAYPLYSDFG (C-terminus in amid form) was used which can be purchased e.g. from the company Biosynthan GmbH (Berlin-Buch, Germany). Detection of phosphorylated product is achieved specifically by a trimeric detection complex consisting of the phosphorylated substrate, streptavidin-XLent (SA-XLent) which binds to biotin, and Europium Cryptate-labeled anti-phosphotyrosine antibody PT66 which binds to phosphorylated tyrosine.
Tie-2 (3.5 ng/measurement point) was incubated for 60 min at 22° C. in the presence of 10 μM adenosine-tri-phosphate (ATP) and 1 μM substrate peptide (biotin-Ahx-EPKDDAYPLYSDFG-NH2) with different concentrations of test compounds (0 μM and concentrations in the range 0.001-20 μM) in 5 μl assay buffer [50 mM Hepes/NaOH pH 7, 10 mM MgCl2, 0.5 mM MnCl2, 1.0 mM dithiothreitol, 0.01% NP40, protease inhibitor mixture (“Complete w/o EDTA” from Roche, 1 tablet per 2.5 ml), 1% (v/v) dimethylsulfoxide]. The reaction was stopped by the addition of 5 μl of an aqueous buffer (25 mM Hepes/NaOH pH 7.5, 0.28% (w/v) bovine serum albumin) containing EDTA (90 mM) and the HTRF (Homogeneous Time Resolved Fluorescence) detection reagents streptavidine-XLent (0.2 μM, from Cis Biointernational, Marcoule, France) and PT66-Eu-Chelate (0.3 ng/μl; a europium-chelate labelled anti-phospho-tyrosine antibody from Perkin Elmer).
(§1) The resulting mixture was incubated 1 h at 22° C. to allow the binding of the biotinylated phosphorylated peptide to the streptavidine-XLent and the PT66-Eu-Chelate. Subsequently the amount of phosphorylated substrate peptide was evaluated by measurement of the resonance energy transfer from the PT66-Eu-Chelate to the streptavidine-XLent. Therefore, the fluorescence emissions at 620 nm and 665 nm after excitation at 350 nm was measured in a HTRF reader, e.g. a Rubystar (BMG Labtechnologies, Offenburg, Germany) or a Viewlux (Perkin-Elmer). The ratio of the emissions at 665 nm and at […] was taken as the measure for the amount of phosphorylated substrate peptide. The data were normalised (enzyme reaction without inhibitor=0% inhibition, all other assay components but no enzyme=100% inhibition) and IC50 values were calculated by a 4 parameter fit using an inhouse software.
(In general: In TR-FRET formats the signal depends on donor and acceptor labels being close together.)

The target of a further test is T2, human KDR (Homo sapiens, UniProt P35968).
T2 construct: GST-tagged recombinant kinase domain of the human KDR; GST; host or cells: SF-9 insect cells
The test can be described thus: KDR Kinase Assay, HTRF (assay 5). The following applies: 10 μM ATP. The procedure: Assay 5: KDR Kinase Assay
KDR inhibitory activity of compounds of the present invention was quantified employing the KDR HTRF assay as described in the following paragraphs.
GST-tagged recombinant kinase domain of the human KDR expressed in SF-9 cells was used as kinase. As substrate for the kinase reaction the biotinylated peptide biotin-Ahx-DFGLARDMYDKEYYSVG (C-terminus in acid form) was used which can be purchased e.g. form the company Biosynthan GmbH (Berlin-Buch, Germany). KDR was incubated for 45 min at 22° C. in the presence of different concentrations of test compounds in 5 μl assay buffer [50 mM Hepes/NaOH pH 7.0, 25 mM MgCl2, 5 mM MnCl2, 1.0 mM dithiothreitol, 0.1 mM sodium ortho-vanadate, 10 μM adenosine-tri-phosphate (ATP), 0.5 μM substrate, 0.001% (v/v) Nonidet-P40 (Sigma), 1% (v/v) dimethylsulfoxide]. The concentration of KDR was adjusted depending of the activity of the enzyme lot and was chosen appropriate to have the assay in the linear range. The reaction was stopped by the addition of 5 μl of a solution of HTRF detection reagents (0.1 μM streptavidine-XLent and 2 nM PT66-Eu-Chelate, an europium-chelate labelled anti-phospho-tyrosine antibody from Perkin Elmer) in an aqueous EDTA-solution (125 mM EDTA, 0.2% (w/v) bovine serum albumin in 50 mM HEPES/NaOH pH 7.0).
as §1, with “substrate” for “substrate peptide”, “substrate.” for “substrate peptide.”

A further test concerns the target T3, CDK2/CycE (Homo sapiens, UniProt P24941).
T3 construct: GST; purchased ProQinase GmbH (Freiburg, Germany); host or cells: Sf9 insect cells
Put plainly: CDK2 HTRF Assay (assay 4). The following applies: pIC50 = −log IC50 in molar concentration; 10 μM ATP. An excerpt:
CDK2/CycE—inhibitory activity of compounds of the present invention was quantified employing the CDK2/CycE HTRF assay as described in the following paragraphs.
Recombinant fusion proteins of GST and human CDK2 and of GST and human CycE, expressed in insect cells (Sf9) and purified by Glutathion-Sepharose affinity chromatography, were purchase from ProQinase GmbH (Freiburg, Germany). As substrate for the kinase reaction biotinylated peptide biotin-Ttds-YISPLKSPYKISEG (C-terminus in amid form) was used which can be purchased e.g. form the company JERINI peptide technologies (Berlin, Germany).
CDK2/CycE was incubated for 60 min at 22° C. in the presence of different concentrations of test compounds in 5 μl assay buffer [50 mM Tris/HCl pH […], 1.0 mM dithiothreitol, 0.1 mM sodium ortho-vanadate, 10 μM adenosine-tri-phosphate (ATP), 0.75 μM substrate, 0.01% (v/v) Nonidet-P40 (Sigma), 1% (v/v) dimethylsulfoxide]. The concentration of CDK2/CycE was adjusted depending of the activity of the enzyme lot and was chosen appropriate to have the assay in the linear range, typical concentrations were in the range of 1 ng/ml. The reaction was stopped by the addition of 5 μl of a solution of HTRF detection reagents (0.2 μM streptavidine-XLent and 3.4 nM Phospho-(Ser) CDKs Substrate Antibody [product #2324B, Cell Signalling Technology, Danvers, Mass., USA} and 4 nM Prot-A-EuK [Protein A labeled with Europium Cryptate from Cis biointernational, France, product no. 61PRAKLB]) in an aqueous EDTA-solution (100 mM EDTA, 800 mM KF, 0.2% (w/v) bovine serum albumin in 100 mM HEPES/NaOH pH 7.0).

The target of a further test is T4, Plk1 (Homo sapiens, UniProt P53350).
T4 construct: N-terminally 6His-tagged full length Plk1; 6His (N); made in house
Put plainly: Plk1 Inhibition Assay, SPA (assay 6). Particulars: ATP 0.5 μM. The source says: Assay 6: Plk1 Inhibition Assay
Plk1 phosphorylates serine/threonine residues of the biotinylated substrate bovine α-casein in the presence of [γ-^33P]ATP. Detection of the radiolabeled phosphorylated product is achieved by binding to streptavidine-coated SPA beads. The biotin moieties of biotinylated casein bind with high affinity to the streptavidine. The radiolabeled biotinylated casein produced by the Plk1 kinase reaction is able to generate a chemoluminescent signal when strepatavidine-mediated binding occurs to the scintillant-containing surface of the beads due to the close proximity of the radiolabel and the scintillant. […] The signals obtained are therefore indicative of the Plk1 kinase activity. Measurement is performed in a Perkin-Elmer TopCount instrument.
Enzyme: Purified human recombinant PLK1 [N-terminally 6His-tagged full length Plk1], prepared in house, conc.: 0.4 μg/μl Substrate: biotinylated bovine α-casein. Unbiotinylated casein obtained from Sigma was biotinylated by standard procedures using N-hydroxysuccinimide (NHS) ester of biotin. SPA-beads: PVT streptavidin SPA Beads, Amersham (# RPNQ0007) Reference compound: Wortmannin Assay plates: 384-well plates, small volume, white, Greiner (#784075) Buffer Materials Hepes: Sigma (# H-4034), MnCl2: Sigma (# M-1787), MgCl2: Sigma [# M-1028], NaCl: Merck [#1.06404.100], DTT: Biomol (#04010), NP40: Fluka (#74385), Complete EDTA-free: Roche [#1873580], ATP: Amersham (#27-2056), 33P-gamma-ATP: Perkin Elmer (Easytides # NEG/602H), EDTA: Sigma (# E-7889), PBS: Gibco (#14190-094), ATP for stopping solution: Sigma #(A-7699), DMSO: Merck [#8.02912.1000] Sealing tape: Greiner (#676080) Reader: TopCount instrument (PerkinElmer)
Assay buffer: 2.5 mM MnCl2, 5 mM MgCl2, 120 mM NaCl, 1 mM DTT, 50 mM Hepes pH 7.0, 0.01% NP40, 1× Complete (protease inhibitor cocktail) Enzyme working solution: 2.86 ng/μl PLK1 in assay buffer Substrate working solution: 1 μM ATP, 1.4 μM biotinylated a-Casein, 2.0 nCi/μl in assay buffer Stop/Detection solution: 50 μM ATP, 20 mM EDTA, 5 μg/μl beads in PBS 3. Assay protocol for small volume screen (all steps at 20° C., pipetted with CyBi-Well pipettor) • 1. 0.75 μl Compound in 30% or 100% DMSO • 2. addition of 3.5 μl Enzyme working solution • 3. addition of 3.5 μl Substrate working solution incubation 180 min • 4. addition of 10 μl Stop/Detection solution • 5. sealing of the plates, incubation 30 min, 10 min centrifugation at 1500 rpm • 6. Measurement in TopCount reader (60 sec/well)
Final concentrations, calculated for 7 μl reaction volume: PLK1 10 ng/well; a-Casein 0.7 μM; ATP 0.5 μM; gamma-33P-ATP 7 nCi/well, 2.5 mM MnCl2, 5 mM MgCl2, 120 mM NaCl, 1 mM DTT, 50 mM Hepes pH 7.0, 0.01% NP40, 1× Complete, 3% or 10% DMSO
The data were normalised (enzyme reaction without inhibitor=0% inhibition, enzyme reaction in the presence of 3.0 E-06 M wortmannin=100% inhibition) and IC50 values were calculated by a 4-parameter fit using an in house software.

T2 sequence (P35968 834-1162 limits assumed): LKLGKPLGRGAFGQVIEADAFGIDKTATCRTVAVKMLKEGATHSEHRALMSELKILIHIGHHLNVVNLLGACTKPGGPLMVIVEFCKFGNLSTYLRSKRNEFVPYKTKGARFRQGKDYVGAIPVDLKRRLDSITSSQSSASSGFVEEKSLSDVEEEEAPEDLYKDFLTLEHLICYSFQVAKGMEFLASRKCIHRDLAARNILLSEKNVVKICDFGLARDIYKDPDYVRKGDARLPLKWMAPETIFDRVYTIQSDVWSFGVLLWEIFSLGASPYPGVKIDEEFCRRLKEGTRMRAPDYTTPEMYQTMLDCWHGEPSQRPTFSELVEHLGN
T1 sequence (Q02763 770-1124 limits assumed): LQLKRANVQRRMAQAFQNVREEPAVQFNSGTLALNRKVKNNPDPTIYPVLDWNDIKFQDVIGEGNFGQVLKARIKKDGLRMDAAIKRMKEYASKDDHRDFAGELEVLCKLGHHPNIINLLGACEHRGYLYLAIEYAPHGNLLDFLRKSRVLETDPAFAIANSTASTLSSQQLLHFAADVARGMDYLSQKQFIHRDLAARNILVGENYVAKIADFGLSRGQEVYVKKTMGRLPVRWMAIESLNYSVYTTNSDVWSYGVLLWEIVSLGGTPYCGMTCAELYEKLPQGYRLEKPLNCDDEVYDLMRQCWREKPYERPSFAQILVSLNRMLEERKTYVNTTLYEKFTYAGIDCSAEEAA
T4 sequence (P53350 whole entry): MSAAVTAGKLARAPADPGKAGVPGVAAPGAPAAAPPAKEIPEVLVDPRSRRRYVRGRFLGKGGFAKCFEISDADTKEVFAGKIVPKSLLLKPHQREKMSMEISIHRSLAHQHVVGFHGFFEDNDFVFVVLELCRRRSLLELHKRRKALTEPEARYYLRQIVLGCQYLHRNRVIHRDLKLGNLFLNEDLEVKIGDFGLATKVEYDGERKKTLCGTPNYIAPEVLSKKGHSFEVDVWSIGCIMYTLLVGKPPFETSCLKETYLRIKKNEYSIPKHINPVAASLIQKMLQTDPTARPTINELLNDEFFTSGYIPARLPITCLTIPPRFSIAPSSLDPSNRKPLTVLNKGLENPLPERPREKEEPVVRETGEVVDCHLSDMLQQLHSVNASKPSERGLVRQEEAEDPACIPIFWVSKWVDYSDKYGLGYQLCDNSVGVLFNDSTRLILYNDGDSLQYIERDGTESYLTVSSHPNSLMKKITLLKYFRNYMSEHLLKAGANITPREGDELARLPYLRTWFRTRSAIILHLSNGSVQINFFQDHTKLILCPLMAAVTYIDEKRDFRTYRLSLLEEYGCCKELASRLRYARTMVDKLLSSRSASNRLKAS

As a reminder, the IC50 is the concentration that inhibits the measured activity by half. A higher IC50 goes with lower potency. Consider `O=C(NCC#Cc1cnc2nc1NCCCNS(=O)(=O)c1cccc(c1)N2)Nc1cccc(C(F)(F)F)c1` [Example 4, 1-[3-(13,13-Dioxo-13λ^6-thia-2,4,8,12,19-pentaaza-tricyclo[12.3.1.1^3,7]-nonadeca-1(18),3(19),4,6,14,16-hexaen-6-yl)-prop-2-ynyl]-3-(3-trifluoromethyl-phenyl)-urea], for which the IC50 against Tie-2 is not above 0.1 µM; at human KDR, not above 0.1 µM; at CDK2/CycE, more than 10 µM; against Plk1, more than 10 µM.

As for `O=C(NCC#Cc1cnc2nc1NCCCNS(=O)(=O)c1cccc(c1)N2)NCc1ccccc1` [Example 5, 1-Benzyl-3-[3-(13,13-dioxo-13λ^6-thia-2,4,8,12,19-pentaaza-tricyclo[12.3.1.1^3,7]-nonadeca-1(18),3(19),4,6,14,16-hexaen-6-yl)-prop-2-ynyl]-urea], the IC50 is not above 0.1 µM against Tie-2, 0.1 to 1 µM on human KDR, more than 10 µM against CDK2/CycE and more than 10 µM at Plk1.

In the case of `O=C(NCCC#Cc1cnc2nc1NCCCNS(=O)(=O)c1cccc(c1)N2)Nc1ccccc1` [Example 6, 1-[4-(13,13-Dioxo-13λ^6-thia-2,4,8,12,19-pentaaza-tricyclo[12.3.1.1^3,7]-nonadeca-1(18),3(19),4,6,14,16-hexaen-6-yl)-but-3-ynyl]-3-phenyl-urea], the IC50 is 0.1 to 1 µM at Tie-2, not above 0.1 µM on human KDR, 1 to 10 µM against CDK2/CycE and more than 10 µM on Plk1.

On to `O=S1(=O)NCCCNc2nc(ncc2C#CCNS(=O)(=O)c2cccc(Cl)c2Cl)Nc2cccc1c2` [Example 8, 2,3-Dichloro-N-[3-(13,13-dioxo-13λ^6-thia-2,4,8,12,19-pentaaza-tricyclo[12.3.1.1^3,7]-nonadeca-1(18),3(19),4,6,14,16-hexaen-6-yl)-prop-2-ynyl]-benzenesulfonamide], for which the IC50 is 0.1 to 1 µM against Tie-2, not above 0.1 µM against human KDR, 1 to 10 µM on CDK2/CycE and more than 10 µM against Plk1.

Turning to `Cc1ccc(F)c(S(=O)(=O)NCCC#Cc2cnc3nc2NCCCNS(=O)(=O)c2cccc(c2)N3)c1` [Example 13, N-[4-(13,13-Dioxo-13λ^6-thia-2,4,8,12,19-pentaaza-tricyclo[12.3.1.1^3,7]-nonadeca-1(18),3(19),4,6,14,16-hexaen-6-yl)-but-3-ynyl]-2-fluoro-5-methyl-benzene-sulfonamide], the half-maximal inhibitory concentration (IC50) is not above 0.1 µM against Tie-2, not above 0.1 µM on human KDR, more than 10 µM against CDK2/CycE and more than 10 µM at Plk1.
